PubChem BioAssay AID248 (DTP/NCI, 2004)
Several values for one entry are separate records, joined by “and”; a condition that tells them apart may be missing. Equal entries are not always repeated. Inconclusive results and toxic doses are left out. No stated cut-off is given here; in the data, active means T/C of 150% or more; inactive means T/C below 125%. Peptide text beside a SMILES is read from it. * marks the point of attachment. Trt = c1ccc(C(c2ccccc2)(c2ccccc2)*)cc1; OtBu = CC(C)(C)O*

Tested on: L1210 leukemia ip in BDF1 mice, survival T/C
Test: NCI In Vivo Anticancer Drug Screen. Data for tumor model L1210 Leukemia (intraperitoneal) in B6D2F1 (BDF1) mice
Settings: endpoint: mean survival time, higher = longer survival
How it was run: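 Read-out is survival time, reported as the treated-group measurement over the vehicle-control measurement.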

[1] = dose: 100.0 mg/kg/injection, schedule: Q04DX003 (ip), vehicle: Klucel (hydroxypropylcellulose) (HPC)
[2] = dose: 200.0 mg/kg/injection, schedule: Q04DX003 (ip), vehicle: Klucel (hydroxypropylcellulose) (HPC)
[3] = dose: 400.0 mg/kg/injection, schedule: Q04DX003 (ip), vehicle: Klucel (hydroxypropylcellulose) (HPC)
[4] = dose: 100.0 mg/kg/injection, schedule: Q01DX009 (ip), vehicle: saline
[5] = dose: 200.0 mg/kg/injection, schedule: Q01DX009 (ip), vehicle: saline
[6] = dose: 400.0 mg/kg/injection, schedule: Q01DX001 (ip), vehicle: saline
[7] = dose: 100.0 mg/kg/injection, schedule: Q01DX009 (ip), vehicle: Klucel (hydroxypropylcellulose) (HPC)
[8] = dose: 200.0 mg/kg/injection, schedule: Q01DX009 (ip), vehicle: Klucel (hydroxypropylcellulose) (HPC)
[9] = dose: 100.0 mg/kg/injection, schedule: Q04DX002 (ip), vehicle: Klucel (hydroxypropylcellulose) (HPC)
[10] = dose: 200.0 mg/kg/injection, schedule: Q04DX002 (ip), vehicle: Klucel (hydroxypropylcellulose) (HPC)
[11] = dose: 400.0 mg/kg/injection, schedule: Q04DX002 (ip), vehicle: Klucel (hydroxypropylcellulose) (HPC)
[12] = dose: 100.0 mg/kg/injection, schedule: Q04DX003 (ip), vehicle: saline with Tween-80
[13] = dose: 200.0 mg/kg/injection, schedule: Q04DX003 (ip), vehicle: saline with Tween-80
[14] = dose: 400.0 mg/kg/injection, schedule: Q04DX003 (ip), vehicle: saline with Tween-80

Measured: T/C

C[C@]12CC[C@H](O)C[C@@H]1CC[C@@H]1[C@@H]2C(=O)C[C@]2(C)C3=CC(=O)O[C@H]3C[C@@H]12
inactive: dose: 5.0 mg/kg/injection, schedule: Q01DX Z (sc), vehicle: steriod suspending solution 94 % of control and 108 % of control | dose: 10.0 mg/kg/injection, schedule: Q01DX Z (sc), vehicle: steriod suspending solution 97 % of control and 100 % of control | dose: 20.0 mg/kg/injection, schedule: Q01DX Z (sc), vehicle: steriod suspending solution 94 % of control and 102 % of control | dose: 40.0 mg/kg/injection, schedule: Q01DX Z (sc), vehicle: steriod suspending solution 94 % of control and 96 % of control and 100 % of control | dose: 80.0 mg/kg/injection, schedule: Q01DX Z (sc), vehicle: steriod suspending solution 104 % of control | dose: 160.0 mg/kg/injection, schedule: Q01DX Z (sc), vehicle: steriod suspending solution 95 % of control | dose: 320.0 mg/kg/injection, schedule: Q01DX Z (sc), vehicle: steriod suspending solution 95 % of control | dose: 640.0 mg/kg/injection, schedule: Q01DX015 (sc), vehicle: steriod suspending solution 100 % of control | dose: 1280.0 mg/kg/injection, schedule: Q01DX015 (sc), vehicle: steriod suspending solution 96 % of control

COc1ccc(C(=O)CCC(=O)O)c2ccccc12
inactive: [1] 92 % of control | [2] 93 % of control | [3] 88 % of control

CC/C(C)=N\NC(=O)c1cccnc1
inactive: [4] 110 % of control | [5] 110 % of control

CC(C)=NC(=O)NO.[Cl][Ni][Cl]
inactive: dose: 15.0 mg/kg/injection, schedule: Q01DX001 (ip), vehicle: saline 102 % of control | dose: 30.0 mg/kg/injection, schedule: Q01DX001 (ip), vehicle: saline 110 % of control | dose: 60.0 mg/kg/injection, schedule: Q01DX001 (ip), vehicle: saline 111 % of control | dose: 75.0 mg/kg/injection, schedule: Q01DX001 (ip), vehicle: saline 116 % of control

OC1C2CCN(CC2)C1CN1CCOCC1 (stereo unspecified)
inactive: dose: 100.0 mg/kg/injection, schedule: Q01DX001 (ip), vehicle: saline 107 % of control | [4] 94 % of control | dose: 200.0 mg/kg/injection, schedule: Q01DX001 (ip), vehicle: saline 108 % of control | [5] 91 % of control | [6] 97 % of control | dose: 400.0 mg/kg/injection, schedule: Q01DX009 (ip), vehicle: saline 91 % of control

Cc1c(O)c2ccc(Cl)cc2n(C)c1=O
inactive: dose: 100.0 mg/kg/injection, schedule: Q04DX002 (ip), vehicle: saline with Tween-80 100 % of control | dose: 200.0 mg/kg/injection, schedule: Q04DX002 (ip), vehicle: saline with Tween-80 94 % of control | dose: 400.0 mg/kg/injection, schedule: Q04DX002 (ip), vehicle: saline with Tween-80 103 % of control

Cc1cccc(C)c1NS(=O)(=O)c1ccccc1
inactive: [7] 104 % of control | [1] 101 % of control | [8] 101 % of control | [2] 103 % of control | dose: 400.0 mg/kg/injection, schedule: Q01DX009 (ip), vehicle: Klucel (hydroxypropylcellulose) (HPC) 98 % of control | [3] 104 % of control

CC(=O)OC1CC2CC1C1C=CCC21 (stereo unspecified)
inactive: dose: 50.0 mg/kg/injection, schedule: Q01DX009 (ip), vehicle: saline with Tween-80 88 % of control | dose: 100.0 mg/kg/injection, schedule: Q01DX009 (ip), vehicle: saline with Tween-80 86 % of control | dose: 100.0 mg/kg/injection, schedule: Q04DX003 (ip), vehicle: saline sonified 94 % of control | dose: 200.0 mg/kg/injection, schedule: Q04DX003 (ip), vehicle: saline sonified 89 % of control

Cn1c(=O)n(C)c2ccccc21
inactive: dose: 50.0 mg/kg/injection, schedule: Q01DX009 (ip), vehicle: saline 110 % of control | [4] 106 % of control | dose: 100.0 mg/kg/injection, schedule: Q04DX003 (ip), vehicle: saline 108 % of control | dose: 200.0 mg/kg/injection, schedule: Q04DX003 (ip), vehicle: saline 108 % of control

O=C(Nc1ccccc1)Nc1ccccc1Cl
inactive: [9] 110 % of control | [10] 93 % of control | [11] 107 % of control

O=CNC(CSSCC(NC=O)C(=O)O)C(=O)O (stereo unspecified)
inactive: [12] 101 % of control | [13] 103 % of control | [14] 90 % of control

CC(C)(C)OC(=O)CNC(=O)C(Cc1ccccc1)NC(=O)C(N)CSC(c1ccccc1)(c1ccccc1)c1ccccc1 (stereo not drawn) (H-Cys(Trt)-Phe-Gly-OtBu; configuration not given here)
inactive: dose: 264.0 mg/kg/injection, schedule: Q01DX001 (ip), vehicle: carboxymethylcellulose (CMC) 104 % of control | dose: 264.0 mg/kg/injection, schedule: Q01DX001 (ip), vehicle: saline 110 % of control | dose: 400.0 mg/kg/injection, schedule: Q01DX001 (ip), vehicle: carboxymethylcellulose (CMC) 107 % of control | [6] 115 % of control

O=C(c1ccc(Cl)cc1)c1nc2ccccc2[nH]1
inactive: [9] 95 % of control | [10] 95 % of control | [11] 103 % of control

Clc1cccc2c1Cc1c(Cl)cccc1C2
inactive: dose: 100.0 mg/kg/injection, schedule: Q01DX001 (ip), vehicle: saline with Tween-80 97 % of control | dose: 200.0 mg/kg/injection, schedule: Q01DX001 (ip), vehicle: saline with Tween-80 94 % of control | dose: 400.0 mg/kg/injection, schedule: Q01DX001 (ip), vehicle: saline with Tween-80 97 % of control

CN(C)CCOC(=O)c1ccc(C=O)cc1
inactive: dose: 100.0 mg/kg/injection, schedule: Q04DX002 (ip), vehicle: saline 105 % of control | dose: 200.0 mg/kg/injection, schedule: Q04DX002 (ip), vehicle: saline 110 % of control | dose: 400.0 mg/kg/injection, schedule: Q04DX002 (ip), vehicle: saline 90 % of control

Nc1ccc2c(c1)oc1ccccc12
inactive: [9] 107 % of control | [10] 103 % of control | [11] 110 % of control

CC(=Nc1c2c(nc3ccccc13)CCCC2)N(C)C
inactive: dose: 12.0 mg/kg/injection, schedule: Q04DX003 (ip), vehicle: Klucel (hydroxypropylcellulose) (HPC) 105 % of control | dose: 25.0 mg/kg/injection, schedule: Q04DX003 (ip), vehicle: Klucel (hydroxypropylcellulose) (HPC) 100 % of control | dose: 50.0 mg/kg/injection, schedule: Q04DX003 (ip), vehicle: Klucel (hydroxypropylcellulose) (HPC) 104 % of control

C=C1CC2(CCC23COC(=O)C3=C)OC1=O (stereo unspecified)
inactive: dose: 1.56 mg/kg/injection, schedule: Q01DX001 (ip), vehicle: other 98 % of control | dose: 3.12 mg/kg/injection, schedule: Q01DX001 (ip), vehicle: other 102 % of control and 109 % of control | dose: 6.25 mg/kg/injection, schedule: Q01DX001 (ip), vehicle: other 105 % of control and 121 % of control | dose: 12.5 mg/kg/injection, schedule: Q01DX001 (ip), vehicle: other 102 % of control

CC(=O)NC(C)CCC(C)C (stereo unspecified)
inactive: [1] 101 % of control | [2] 100 % of control | [3] 101 % of control

Cc1ccccc1Nc1n[nH]c(=O)n1-c1ccccc1C
inactive: dose: 100.0 mg/kg/injection, schedule: Q04DX003 (ip), vehicle: carboxymethylcellulose (CMC) 98 % of control | dose: 200.0 mg/kg/injection, schedule: Q04DX003 (ip), vehicle: carboxymethylcellulose (CMC) 90 % of control | dose: 400.0 mg/kg/injection, schedule: Q04DX003 (ip), vehicle: carboxymethylcellulose (CMC) 106 % of control

CCC1(c2ccccc2)CCN(C)C1 (stereo unspecified)
inactive: dose: 75.0 mg/kg/injection, schedule: Q01DX001 (ip), vehicle: carboxymethylcellulose (CMC) 93 % of control

O=C(Nc1ccc([N+](=O)[O-])cc1)c1cc(Cl)c2ccccc2c1O
inactive: [7] 106 % of control | [8] 98 % of control

O=C(O)Cn1cc(Cl)cc(Cl)c1=O
inactive: [9] 107 % of control | [10] 107 % of control | [11] 96 % of control

N#C/C(=C\c1cccn1Cc1cc2c(cc1[N+](=O)[O-])OCO2)C(N)=O
inactive: dose: 25.0 mg/kg/injection, schedule: Q04DX002 (ip), vehicle: Klucel (hydroxypropylcellulose) (HPC) 96 % of control | dose: 50.0 mg/kg/injection, schedule: Q04DX002 (ip), vehicle: Klucel (hydroxypropylcellulose) (HPC) 96 % of control | [9] 96 % of control

CC1=CC(C)(C)NC(=S)N1CCO
inactive: dose: 74.0 mg/kg/injection, schedule: Q01DX Z (ip), vehicle: methylcellulose (MC) 91 % of control | [9] 104 % of control | [10] 107 % of control

CC(C)(C(O)c1ccccc1)[N+](=O)[O-] (stereo unspecified)
inactive: [12] 101 % of control | [13] 97 % of control | [14] 101 % of control
